Molecular target: RORγt (Homo sapiens (Human), UniProt P51449)
Experiment: Gal4 ligand binding assay (RORγt Gal fusion luciferase reporter assay in HEK293T cells)
Assay type: cell-based
Conditions: RORγt inverse agonists in RORγt Gal fusion assay
Procedure, shortened: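 Stable HEK293T line expressing the receptor fused to the Gal4 DBD, with a Gal4 UAS-driven luciferase; constitutively active, so agonism and inverse agonism both register. 10-point 1:3 titrations, 60 μM to 3 nM as prepared in media (added as 2×), 0.2% final DMSO; 24 h at 37 °C. Luminescence normalised to vehicle-only wells.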

RORγt, sequence (P51449 269-508): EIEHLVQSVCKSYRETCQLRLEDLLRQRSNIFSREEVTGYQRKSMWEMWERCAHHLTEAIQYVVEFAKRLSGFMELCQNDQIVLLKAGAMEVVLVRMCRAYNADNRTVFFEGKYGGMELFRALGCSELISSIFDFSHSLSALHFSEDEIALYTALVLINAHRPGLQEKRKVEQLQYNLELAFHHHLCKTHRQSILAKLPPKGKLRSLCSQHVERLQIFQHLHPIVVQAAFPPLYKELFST

IC50	Structure (SMILES)
< 0.05 µM	CCc1c(F)c(CN2CC3(C2)CN(S(C)(=O)=O)C3)cc(F)c1-c1ccc(C(O)(C(F)(F)F)C(F)(F)F)cc1 [Example 69, 2-(2′-ethyl-3′,6′-difluoro-4′-((6-(methylsulfonyl)-2,6-diazaspiro[3.3]heptan-2-yl)methyl)-[1,1′-biphenyl]-4-yl)-1,1,1,3,3,3-hexafluoropropan-2-ol]
< 0.05 µM	CCc1c(F)c(CN2CC3(C2)CN(S(C)(=O)=O)C3)cc(F)c1-c1ccc(C(O)(C(F)(F)F)C(F)(F)F)cc1F [Example 70, 2-(2′-ethyl-2,3′,6′-trifluoro-4′-((6-(methylsulfonyl)-2,6-diazaspiro[3.3]heptan-2-yl)methyl)-[1,1′-biphenyl]-4-yl)-1,1,1,3,3,3-hexafluoropropan-2-ol]
< 0.05 µM	CCc1cc(C(O)(C(F)(F)F)C(F)(F)F)ccc1-c1c(F)cc(CN2CC3(C2)CN(S(C)(=O)=O)C3)c(F)c1CC [Example 71, 2-(2,2′-diethyl-3′,6′-difluoro-4′-((6-(methylsulfonyl)-2,6-diazaspiro[3.3]heptan-2-yl)methyl)-[1,1′-biphenyl]-4-yl)-1,1,1,3,3,3-hexafluoropropan-2-ol]
< 0.05 µM	CCc1c(F)c(CN2CC3(C2)CN(S(C)(=O)=O)C3)cc(F)c1-c1ccc(C(O)(C(F)(F)F)C(F)(F)F)cc1Cl [Example 72, 2-(2-chloro-2′-ethyl-3′,6′-difluoro-4′-((6-(methylsulfonyl)-2,6-diazaspiro[3.3]heptan-2-yl)methyl)-[1,1′-biphenyl]-4-yl)-1,1,1,3,3,3-hexafluoropropan-2-ol]
> 0.25 µM	CCc1nc(CN2CC3(C2)CN(S(C)(=O)=O)C3)ccc1-c1ccc(C(O)(C(F)(F)F)C(F)(F)F)cc1C [Example 73, 2-(4-(2-ethyl-6-((6-(methylsulfonyl)-2,6-diazaspiro[3.3]heptan-2-yl)methyl)pyridin-3-yl)-3-methylphenyl)-1,1,1,3,3,3-hexafluoropropan-2-ol]
0.05 to 0.25 µM	CC(C)c1c(F)c(CN2CCC3(C2)CN(S(C)(=O)=O)C3)cc(F)c1-c1ccc(C(O)(C(F)(F)F)C(F)(F)F)cc1 [Example 74, 2-(3′,6′-difluoro-2′-isopropyl-4′-((2-(methylsulfonyl)-2,6-diazaspiro[3.4]octan-6-yl)methyl)-[1,1′-biphenyl]-4-yl)-1,1,1,3,3,3-hexafluoropropan-2-ol]
< 0.05 µM	CCc1cc(CN2CC3(C2)CN(S(C)(=O)=O)C3)ccc1-c1ccc(C(O)(C(F)(F)F)C(F)(F)F)cc1Cl [Example 75, 2-(2-chloro-2′-ethyl-4′-((6-(methylsulfonyl)-2,6-diazaspiro[3.3]heptan-2-yl)methyl)-[1,1′-biphenyl]-4-yl)-1,1,1,3,3,3-hexafluoropropan-2-ol]
< 0.05 µM	CCc1cc(C(O)(C(F)(F)F)C(F)(F)F)ccc1-c1ccc(CN2CC3(C2)CN(S(C)(=O)=O)C3)cc1C [Example 76, 2-(2-ethyl-2′-methyl-4′-((6-(methylsulfonyl)-2,6-diazaspiro[3.3]heptan-2-yl)methyl)-[1,1′-biphenyl]-4-yl)-1,1,1,3,3,3-hexafluoropropan-2-ol]
< 0.05 µM	CCc1cc(CN2CC3(C2)CN(S(C)(=O)=O)C3)ccc1-c1ccc(C(O)(C(F)(F)F)C(F)(F)F)cc1CC [Example 77, 2-(2,2′-diethyl-4′-((6-(methylsulfonyl)-2,6-diazaspiro[3.3]heptan-2-yl)methyl)-[1,1′-biphenyl]-4-yl)-1,1,1,3,3,3-hexafluoropropan-2-ol]
< 0.05 µM	CC(C)c1cc(CN2CC3(C2)CN(S(C)(=O)=O)C3)c(F)cc1-c1ccc(C(O)(C(F)(F)F)C(F)(F)F)cc1 [Example 78, 1,1,1,3,3,3-hexafluoro-2-(5′-fluoro-2′-isopropyl-4′-((6-(methylsulfonyl)-2,6-diazaspiro[3.3]heptan-2-yl)methyl)-[1,1′-biphenyl]-4-yl)propan-2-ol]

From patent US11242350B2, “Spirocyclic ROR-gamma modulators” (Escalier Biosciences B.V., priority 2018, dated 2022)
